Laboratory results as given in PubChem BioAssay (NCI).
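Method: 48-hour compound exposure of cells in 96-well plates, five concentrations, linear interpolation of endpoints. TGI is the concentration that stops growth completely.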

What was measured:
Experiment in all cases: DTP human tumour cell line panel, 48 h
NCI-H23 lung = test system: NCI-H23 lung
TK-10 renal = test system: TK-10 renal
OVCAR-4 ovarian = test system: OVCAR-4 ovarian
NCI-H460 lung = test system: NCI-H460 lung
CAKI-1 renal = test system: CAKI-1 renal
SNB-19 CNS = test system: SNB-19 CNS
LOX IMVI melanoma = test system: LOX IMVI melanoma
UACC-257 melanoma = test system: UACC-257 melanoma
LXFL 529 NSCLC = test system: LXFL 529 NSCLC
KM20L2 colon = test system: KM20L2 colon
RXF 393 renal = test system: RXF 393 renal
DLD-1 colon = test system: DLD-1 colon
HOP-62 NSCLC = test system: HOP-62 NSCLC
HT29 colon = test system: HT29 colon
SN12C renal = test system: SN12C renal
DMS 114 small cell lung = test system: DMS 114 small cell lung
UO-31 renal = test system: UO-31 renal
KM12 colon = test system: KM12 colon
NCI-H522 lung = test system: NCI-H522 lung
A549 NSCLC = test system: A549 NSCLC
DMS 273 small cell lung = test system: DMS 273 small cell lung
SK-MEL-5 melanoma = test system: SK-MEL-5 melanoma
SR leukemia = test system: SR leukemia
OVCAR-8 ovarian = test system: OVCAR-8 ovarian
SF-539 CNS = test system: SF-539 CNS
U251 CNS = test system: U251 CNS
OVCAR-5 ovarian = test system: OVCAR-5 ovarian
HOP-92 NSCLC = test system: HOP-92 NSCLC
SK-OV-3 ovarian = test system: SK-OV-3 ovarian
HCT-116 colon = test system: HCT-116 colon
EKVX NSCLC = test system: EKVX NSCLC
HL-60(TB) leukemia = test system: HL-60(TB) leukemia
SK-MEL-2 melanoma = test system: SK-MEL-2 melanoma
SNB-78 CNS = test system: SNB-78 CNS
SF-295 CNS = test system: SF-295 CNS
HCC-2998 colon = test system: HCC-2998 colon
HCT-15 colon = test system: HCT-15 colon
786-0 renal = test system: 786-0 renal
ACHN renal = test system: ACHN renal
A498 renal = test system: A498 renal
MOLT-4 leukemia = test system: MOLT-4 leukemia
SK-MEL-28 melanoma = test system: SK-MEL-28 melanoma
SNB-75 CNS = test system: SNB-75 CNS
K-562 leukemia = test system: K-562 leukemia
COLO 205 colon = test system: COLO 205 colon
SF-268 CNS = test system: SF-268 CNS
M14 melanoma = test system: M14 melanoma
OVCAR-3 ovarian = test system: OVCAR-3 ovarian
CCRF-CEM leukemia = test system: CCRF-CEM leukemia
RPMI-8226 leukemia = test system: RPMI-8226 leukemia
MALME-3M melanoma = test system: MALME-3M melanoma
IGROV1 ovarian = test system: IGROV1 ovarian
SW-620 colon = test system: SW-620 colon
UACC-62 melanoma = test system: UACC-62 melanoma
HOP-18 NSCLC = test system: HOP-18 NSCLC
M19-MEL melanoma = test system: M19-MEL melanoma
NCI-H226 lung = test system: NCI-H226 lung
XF 498 CNS = test system: XF 498 CNS

Measured: TGI

CC1CCC2(OC1)OC1CC3C4CCC5CC(O)CCC5(C)C4CC(=O)OC3(C)C1C2C (configuration not stated)
> 100 µM: NCI-H23 lung | TK-10 renal | OVCAR-4 ovarian | NCI-H460 lung | CAKI-1 renal | SNB-19 CNS | LOX IMVI melanoma | UACC-257 melanoma | LXFL 529 NSCLC | KM20L2 colon | RXF 393 renal | DLD-1 colon | HOP-62 NSCLC | HT29 colon | SN12C renal | DMS 114 small cell lung | UO-31 renal | KM12 colon | NCI-H522 lung | A549 NSCLC | DMS 273 small cell lung | SK-MEL-5 melanoma | SR leukemia | OVCAR-8 ovarian | SF-539 CNS | U251 CNS | OVCAR-5 ovarian | HOP-92 NSCLC | SK-OV-3 ovarian | HCT-116 colon | EKVX NSCLC | HL-60(TB) leukemia | SK-MEL-2 melanoma | SNB-78 CNS | SF-295 CNS | HCC-2998 colon | HCT-15 colon | 786-0 renal | ACHN renal | A498 renal | MOLT-4 leukemia | SK-MEL-28 melanoma | SNB-75 CNS | K-562 leukemia | COLO 205 colon | SF-268 CNS | M14 melanoma | OVCAR-3 ovarian | CCRF-CEM leukemia | RPMI-8226 leukemia | MALME-3M melanoma | IGROV1 ovarian | SW-620 colon | UACC-62 melanoma | HOP-18 NSCLC | M19-MEL melanoma

COc1nc2c(nc(N)n2C2OC(CO)C(O)C(O)C2O)c(=O)[nH]1 (configuration not stated)
> 100 µM: NCI-H23 lung | TK-10 renal | OVCAR-4 ovarian | NCI-H460 lung | CAKI-1 renal | SNB-19 CNS | LOX IMVI melanoma | UACC-257 melanoma | LXFL 529 NSCLC | KM20L2 colon | RXF 393 renal | DLD-1 colon | HOP-62 NSCLC | HT29 colon | NCI-H226 lung | SN12C renal | UO-31 renal | KM12 colon | NCI-H522 lung | A549 NSCLC | SK-MEL-5 melanoma | SR leukemia | OVCAR-8 ovarian | SF-539 CNS | U251 CNS | HOP-92 NSCLC | SK-OV-3 ovarian | HCT-116 colon | EKVX NSCLC | HL-60(TB) leukemia | SNB-78 CNS | SF-295 CNS | HCC-2998 colon | 786-0 renal | ACHN renal | A498 renal | SK-MEL-28 melanoma | XF 498 CNS | SNB-75 CNS | K-562 leukemia | COLO 205 colon | SF-268 CNS | M14 melanoma | OVCAR-3 ovarian | CCRF-CEM leukemia | MALME-3M melanoma | IGROV1 ovarian | SW-620 colon | UACC-62 melanoma | HOP-18 NSCLC | M19-MEL melanoma

CCCCCC(/C=C/[C@@H]1[C@H]2CC(=O)O[C@H]2C[C@H]1N1CCOCC1)OC1CCCO1 (some centres not stated)
> 100 µM: NCI-H23 lung | TK-10 renal | OVCAR-4 ovarian | NCI-H460 lung | CAKI-1 renal | SNB-19 CNS | LOX IMVI melanoma | UACC-257 melanoma | LXFL 529 NSCLC | KM20L2 colon | RXF 393 renal | DLD-1 colon | HOP-62 NSCLC | HT29 colon | NCI-H226 lung | DMS 114 small cell lung | UO-31 renal | KM12 colon | NCI-H522 lung | A549 NSCLC | DMS 273 small cell lung | SK-MEL-5 melanoma | OVCAR-8 ovarian | SF-539 CNS | U251 CNS | OVCAR-5 ovarian | HOP-92 NSCLC | SK-OV-3 ovarian | HCT-116 colon | EKVX NSCLC | HL-60(TB) leukemia | SK-MEL-2 melanoma | SNB-78 CNS | SF-295 CNS | HCC-2998 colon | HCT-15 colon | 786-0 renal | ACHN renal | A498 renal | MOLT-4 leukemia | SK-MEL-28 melanoma | SNB-75 CNS | K-562 leukemia | COLO 205 colon | SF-268 CNS | M14 melanoma | OVCAR-3 ovarian | CCRF-CEM leukemia | RPMI-8226 leukemia | MALME-3M melanoma | IGROV1 ovarian | SW-620 colon | UACC-62 melanoma | HOP-18 NSCLC | M19-MEL melanoma
